Test results from patent US8952024B2, “Herbicidal pyrimidone derivatives” (E I du Pont de Nemours and Company, priority 2009, dated 2015).

How the values were obtained:
Type in all cases: in vivo
[1] = tested on: barnyardgrass (Echinochloa crus-galli); test: Test A pre-/postemergence plant response
Description: (§1) Seeds of barnyardgrass (Echinochloa crus-galli), large crabgrass (Digitaria sanguinalis), giant foxtail (Setaria faberii), morningglory (Ipomoea spp.), pigweed (Amaranthus retroflexus), velvetleaf (Abutilon theophrasti), wheat (Triticum aestivum) and corn (Zea mays) were planted into a blend of loam soil and sand and treated preemergence with a directed soil spray using test chemicals formulated in a non-phytotoxic solvent mixture which included a surfactant. At the same time these species were also treated with postemergence applications of test compounds formulated in the same manner.
(§2) Plants ranged in height from two to ten cm and were in the one- to two-leaf stage for the postemergence treatment. Treated plants and untreated controls were maintained in a greenhouse for approximately ten days, after which time all treated plants were compared to untreated controls and visually evaluated for injury. Plant response ratings, summarized in Table A, are based on a 0 to 100 scale where 0 is no effect and 100 is complete control. A dash (-) response means no test result.

[2] = tested on: corn (Zea mays); test: Test A pre-/postemergence plant response
Description: as §1, §2

[3] = tested on: giant foxtail (Setaria faberii); test: Test A pre-/postemergence plant response
Description: as §1, §2

[4] = tested on: large crabgrass (Digitaria sanguinalis); test: Test A pre-/postemergence plant response
Description: as §1, §2

[5] = tested on: morningglory (Ipomoea spp.); test: Test A pre-/postemergence plant response
Description: as §1, §2

[6] = tested on: pigweed (Amaranthus retroflexus); test: Test A pre-/postemergence plant response
Description: as §1, §2

[7] = tested on: velvetleaf (Abutilon theophrasti); test: Test A pre-/postemergence plant response
Description: as §1, §2

[8] = tested on: wheat (Triticum aestivum); test: Test A pre-/postemergence plant response
Description: as §1, §2

[9] = tested on: barnyardgrass (Echinochloa crus-galli); test: Test B flooded paddy test; conditions: for Plant response rating, Flood, Barnyardgrass: 250 g ai/ha, flooded paddy test, visual rating on 0 to 100 scale (0 no effect, 100 complete control) after 13 to 15 days; for Plant response rating, Barnyardgrass: Flood (flooded paddy test), 13 to 15 days
How it was run: (§3)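 Plants were grown to the 2-leaf stage, then pots were flooded to 3 cm above the soil and compounds were applied directly into the paddy water. That depth was held throughout. After 13 to 15 days in a greenhouse, injury was visually rated against controls on a 0–100 scale.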

[10] = tested on: ducksalad (Heteranthera limosa); test: Test B flooded paddy test; conditions: for Plant response rating, Flood, Ducksalad: 250 g ai/ha, flooded paddy test, visual rating on 0 to 100 scale (0 no effect, 100 complete control) after 13 to 15 days; for Plant response rating, Ducksalad: Flood (flooded paddy test), 13 to 15 days
How it was run: as §3

[11] = tested on: rice (Oryza sativa); test: Test B flooded paddy test; conditions: for Plant response rating, Flood, Rice: 250 g ai/ha, flooded paddy test, visual rating on 0 to 100 scale (0 no effect, 100 complete control) after 13 to 15 days; for Plant response rating, Rice: Flood (flooded paddy test), 13 to 15 days
How it was run: as §3

[12] = tested on: umbrella sedge (Cyperus difformis); test: Test B flooded paddy test; conditions: for Plant response rating, Flood, Sedge, Umbrella: 250 g ai/ha, flooded paddy test, visual rating on 0 to 100 scale (0 no effect, 100 complete control) after 13 to 15 days; for Plant response rating, Sedge, Umbrella: Flood (flooded paddy test), 13 to 15 days
How it was run: as §3

[13] = Postemergence, 125 g ai/ha, 0 to 100 scale where 0 is no effect and 100 is complete control
[14] = Postemergence, 500 g ai/ha, 0 to 100 scale, 0 = no effect, 100 = complete control, approx. ten days
[15] = Preemergence, 125 g ai/ha, 0 to 100 scale, 0 = no effect, 100 = complete control
[16] = Preemergence, 500 g ai/ha, visual injury, 0 to 100 scale (0 no effect, 100 complete control), approx. ten days
[17] = 62 g ai/ha, scale of 0 to 100 where 0 is no effect and 100 is complete control
[18] = 125 g ai/ha, scale 0 to 100, 0 is no effect, 100 is complete control
[19] = Flood, 31 g ai/ha, scale 0 to 100 (0 no effect, 100 complete control)

## CCCn1c(-c2ccn(C)n2)ncc(C(=O)C2=C(O)CCCC2=O)c1=O [Compound 135]
[1]; [13]
  Plant response rating, Barnyardgrass: 10
[1]; [14]
  Plant response rating, Barnyardgrass: 30
[1]; [15]
  Plant response rating, Barnyardgrass: 0
[1]; [16]
  Plant response rating, Barnyardgrass: 0
[2]; [13]
  Plant response rating, Corn: 0
[2]; [14]
  Plant response rating, Corn: 0
[2]; [15]
  Plant response rating, Corn: 0
[2]; [16]
  Plant response rating, Corn: 0
[3]; [13]
  Plant response rating, Foxtail, Giant: 0
[3]; [14]
  Plant response rating, Foxtail, Giant: 0
[3]; [15]
  Plant response rating, Foxtail, Giant: 0
[3]; [16]
  Plant response rating, Foxtail, Giant: 0
[4]; [13]
  Plant response rating, Crabgrass, Large: 40
[4]; [14]
  Plant response rating, Crabgrass, Large: 70
[4]; [15]
  Plant response rating, Crabgrass, Large: 0
[4]; [16]
  Plant response rating, Crabgrass, Large: 40
[5]; [13]
  Plant response rating, Morningglory: 70
[5]; [14]
  Plant response rating, Morningglory: 90
[5]; [15]
  Plant response rating, Morningglory: 20
[5]; [16]
  Plant response rating, Morningglory: 50
[6]; [13]
  Plant response rating, Pigweed: 80
[6]; [14]
  Plant response rating, Pigweed: 90
[6]; [15]
  Plant response rating, Pigweed: 40
[6]; [16]
  Plant response rating, Pigweed: 80
[7]; [13]
  Plant response rating, Velvetleaf: 100
[7]; [14]
  Plant response rating, Velvetleaf: 100
[7]; [15]
  Plant response rating, Velvetleaf: 40
[7]; [16]
  Plant response rating, Velvetleaf: 70
[8]; [13]
  Plant response rating, Wheat: 0
[8]; [14]
  Plant response rating, Wheat: 0
[8]; [15]
  Plant response rating, Wheat: 0
[8]; [16]
  Plant response rating, Wheat: 0
[9]
  Plant response rating, Flood, Barnyardgrass: 0
[9]; [17]
  Plant response rating, Barnyardgrass: 0
[10]
  Plant response rating, Flood, Ducksalad: 40
[10]; [17]
  Plant response rating, Ducksalad: 30
[11]
  Plant response rating, Flood, Rice: 0
[11]; [17]
  Plant response rating, Rice: 0
[12]
  Plant response rating, Flood, Sedge, Umbrella: 0
[12]; [17]
  Plant response rating, Sedge, Umbrella: 0

## COCCn1c(-c2ccn(C)n2)ncc(C(=O)C2=C(O)CCCC2=O)c1=O [Compound 136]
[1]; [13]
  Plant response rating, Barnyardgrass: 30
[1]; [14]
  Plant response rating, Barnyardgrass: 80
[1]; [15]
  Plant response rating, Barnyardgrass: 0
[1]; [16]
  Plant response rating, Barnyardgrass: 60
[2]; [13]
  Plant response rating, Corn: 0
[2]; [14]
  Plant response rating, Corn: 0
[2]; [15]
  Plant response rating, Corn: 0
[2]; [16]
  Plant response rating, Corn: 0
[3]; [13]
  Plant response rating, Foxtail, Giant: 30
[3]; [14]
  Plant response rating, Foxtail, Giant: 50
[3]; [15]
  Plant response rating, Foxtail, Giant: 0
[3]; [16]
  Plant response rating, Foxtail, Giant: 0
[4]; [13]
  Plant response rating, Crabgrass, Large: 80
[4]; [14]
  Plant response rating, Crabgrass, Large: 90
[4]; [15]
  Plant response rating, Crabgrass, Large: 20
[4]; [16]
  Plant response rating, Crabgrass, Large: 60
[5]; [13]
  Plant response rating, Morningglory: 100
[5]; [14]
  Plant response rating, Morningglory: 100
[5]; [15]
  Plant response rating, Morningglory: 30
[5]; [16]
  Plant response rating, Morningglory: 60
[6]; [13]
  Plant response rating, Pigweed: 80
[6]; [14]
  Plant response rating, Pigweed: 100
[6]; [15]
  Plant response rating, Pigweed: 80
[6]; [16]
  Plant response rating, Pigweed: 100
[7]; [13]
  Plant response rating, Velvetleaf: 100
[7]; [14]
  Plant response rating, Velvetleaf: 100
[7]; [15]
  Plant response rating, Velvetleaf: 70
[7]; [16]
  Plant response rating, Velvetleaf: 100
[8]; [13]
  Plant response rating, Wheat: 0
[8]; [14]
  Plant response rating, Wheat: 0
[8]; [15]
  Plant response rating, Wheat: 0
[8]; [16]
  Plant response rating, Wheat: 0
[9]
  Plant response rating, Flood, Barnyardgrass: 25
[9]; [17]
  Plant response rating, Barnyardgrass: 20
[10]
  Plant response rating, Flood, Ducksalad: 75
[10]; [17]
  Plant response rating, Ducksalad: 55
[11]
  Plant response rating, Flood, Rice: 20
[11]; [17]
  Plant response rating, Rice: 15
[12]
  Plant response rating, Flood, Sedge, Umbrella: 50
[12]; [17]
  Plant response rating, Sedge, Umbrella: 45

## COCCn1c(-c2cccc(Br)c2)ncc(C(=O)C2=C(O)CCCC2=O)c1=O [Compound 139]
[1]; [13]
  Plant response rating, Barnyardgrass: 60
[1]; [14]
  Plant response rating, Barnyardgrass: 80
[1]; [15]
  Plant response rating, Barnyardgrass: 40
[1]; [16]
  Plant response rating, Barnyardgrass: 90
[2]; [13]
  Plant response rating, Corn: 20
[2]; [14]
  Plant response rating, Corn: 40
[2]; [15]
  Plant response rating, Corn: 0
[2]; [16]
  Plant response rating, Corn: 20
[3]; [13]
  Plant response rating, Foxtail, Giant: 50
[3]; [14]
  Plant response rating, Foxtail, Giant: 80
[3]; [15]
  Plant response rating, Foxtail, Giant: 20
[3]; [16]
  Plant response rating, Foxtail, Giant: 70
[4]; [13]
  Plant response rating, Crabgrass, Large: 70
[4]; [14]
  Plant response rating, Crabgrass, Large: 80
[4]; [15]
  Plant response rating, Crabgrass, Large: 90
[4]; [16]
  Plant response rating, Crabgrass, Large: 100
[5]; [13]
  Plant response rating, Morningglory: 100
[5]; [14]
  Plant response rating, Morningglory: 100
[5]; [15]
  Plant response rating, Morningglory: 0
[5]; [16]
  Plant response rating, Morningglory: 80
[6]; [13]
  Plant response rating, Pigweed: 90
[6]; [14]
  Plant response rating, Pigweed: 100
[6]; [15]
  Plant response rating, Pigweed: 70
[6]; [16]
  Plant response rating, Pigweed: 100
[7]; [13]
  Plant response rating, Velvetleaf: 100
[7]; [14]
  Plant response rating, Velvetleaf: 100
[7]; [15]
  Plant response rating, Velvetleaf: 60
[7]; [16]
  Plant response rating, Velvetleaf: 90
[8]; [13]
  Plant response rating, Wheat: 20
[8]; [14]
  Plant response rating, Wheat: 40
[8]; [15]
  Plant response rating, Wheat: 0
[8]; [16]
  Plant response rating, Wheat: 10
[9]
  Plant response rating, Flood, Barnyardgrass: 35
[9]; [17]
  Plant response rating, Barnyardgrass: 10
[10]
  Plant response rating, Flood, Ducksalad: 90
[10]; [17]
  Plant response rating, Ducksalad: 75
[11]
  Plant response rating, Flood, Rice: 30
[11]; [17]
  Plant response rating, Rice: 10
[12]
  Plant response rating, Flood, Sedge, Umbrella: 85
[12]; [17]
  Plant response rating, Sedge, Umbrella: 70

## COCCCn1c(-c2cccc(Cl)c2)ncc(C(=O)C2=C(O)CCCC2=O)c1=O [Compound 143]
[1]; [13]
  Plant response rating, Barnyardgrass: 70
[1]; [14]
  Plant response rating, Barnyardgrass: 90
[1]; [15]
  Plant response rating, Barnyardgrass: 40
[1]; [16]
  Plant response rating, Barnyardgrass: 90
[2]; [13]
  Plant response rating, Corn: 10
[2]; [14]
  Plant response rating, Corn: 20
[2]; [15]
  Plant response rating, Corn: 0
[2]; [16]
  Plant response rating, Corn: 0
[3]; [13]
  Plant response rating, Foxtail, Giant: 60
[3]; [14]
  Plant response rating, Foxtail, Giant: 80
[3]; [15]
  Plant response rating, Foxtail, Giant: 10
[3]; [16]
  Plant response rating, Foxtail, Giant: 70
[4]; [13]
  Plant response rating, Crabgrass, Large: 70
[4]; [14]
  Plant response rating, Crabgrass, Large: 90
[4]; [15]
  Plant response rating, Crabgrass, Large: 50
[4]; [16]
  Plant response rating, Crabgrass, Large: 90
[5]; [13]
  Plant response rating, Morningglory: 90
[5]; [14]
  Plant response rating, Morningglory: 100
[5]; [15]
  Plant response rating, Morningglory: 10
[5]; [16]
  Plant response rating, Morningglory: 70
[6]; [13]
  Plant response rating, Pigweed: 70
[6]; [14]
  Plant response rating, Pigweed: 90
[6]; [15]
  Plant response rating, Pigweed: 70
[6]; [16]
  Plant response rating, Pigweed: 90
[7]; [13]
  Plant response rating, Velvetleaf: 100
[7]; [14]
  Plant response rating, Velvetleaf: 100
[7]; [15]
  Plant response rating, Velvetleaf: 70
[7]; [16]
  Plant response rating, Velvetleaf: 100
[8]; [13]
  Plant response rating, Wheat: 0
[8]; [14]
  Plant response rating, Wheat: 10
[8]; [15]
  Plant response rating, Wheat: 0
[8]; [16]
  Plant response rating, Wheat: 0
[9]
  Plant response rating, Flood, Barnyardgrass: 20
[9]; [17]
  Plant response rating, Barnyardgrass: 0
[9]; [18]
  Plant response rating, Barnyardgrass: 0
[9]; [19]
  Barnyardgrass plant response rating: 0
[10]
  Plant response rating, Flood, Ducksalad: 90
[10]; [17]
  Plant response rating, Ducksalad: 80
[10]; [18]
  Plant response rating, Ducksalad: 80
[10]; [19]
  Ducksalad plant response rating: 80
[11]
  Plant response rating, Flood, Rice: 0
[11]; [17]
  Plant response rating, Rice: 0
[11]; [18]
  Plant response rating, Rice: 0
[11]; [19]
  Rice plant response rating: 0
[12]
  Plant response rating, Flood, Sedge, Umbrella: 65
[12]; [17]
  Plant response rating, Sedge, Umbrella: 0
[12]; [18]
  Plant response rating, Sedge, Umbrella: 0
[12]; [19]
  Sedge, Umbrella plant response rating: 0
